Reference: US10663548B2, “System and method for magnetic resonance imaging” (The University of Western Ontario, priority 2008, dated 2020)
Like-named read-outs stand apart in the source and are kept apart here.

Assays:
albumin [1] = conditions: 1.5 T, cited from earlier work
human serum albumin = human serum albumin (Homo sapiens, UniProt P02768); conditions: cited from earlier work; for increase of relaxivity of the bound form: in the presence of human serum albumin
albumin [2] = test: Relaxivity in the presence and absence of albumin at 1.5 T; assay type: physicochemical
Description: To characterize the efficacy of an activatable contrast agent, the relaxivity enhancement ratio, that is the ratio of the activated relaxivity to the inactivated relaxivity can be defined. For Vasovist at a magnetic field strength equal to 1.5 T, the relaxivities in the presence and absence of albumin are 19 s^−1 mM^−1 and 5.2 s^−1 mM^−1 respectively, resulting in a relaxivity enhancement ratio of 3.7. From FIG. 3 it can be seen that the Vasovist relaxivity enhancement ratio peaks in the vicinity of a magnetic filed strength equal to 0.5 T, and falls quickly for magnetic field strengths above that value.
Defining R1′ and r1′ as the partial derivatives of R1 and r1 with respect to the polarizing magnetic field B0 results in R1′=R1Unenhanced′+r1′*[CA]. Applying the approximation that R1′Unenhanced≈0 for magnetic fields above 1.0 T, results in the expression R1′≈r1′*[CA]. […] For Vasovist, the relaxivity slope enhancement ratio (ratio of activated r1′ to inactivated r1′) is 90 at a magnetic field strength equal to 1.5 T. This represents a 25-fold increase over the absolute relaxivity enhancement ratio of 3.7 mentioned above. The high specificity of DREMR enhancement is not specific to Vasovist but applies to any T1 contrast agent that undergoes binding to large molecules (15).

rabbit serum albumin = biological target: T1, rabbit serum albumin (Oryctolagus cuniculus, UniProt P49065); test: MRI phantom imaging (T1 weighted and DREMR) with and without rabbit serum albumin; conditions: 1.5 T, 21° C.
T1 construct: purchased Sigma-Aldrich batch 104K7560 (catalogue number not given)
T1 sequence (P49065 25-608): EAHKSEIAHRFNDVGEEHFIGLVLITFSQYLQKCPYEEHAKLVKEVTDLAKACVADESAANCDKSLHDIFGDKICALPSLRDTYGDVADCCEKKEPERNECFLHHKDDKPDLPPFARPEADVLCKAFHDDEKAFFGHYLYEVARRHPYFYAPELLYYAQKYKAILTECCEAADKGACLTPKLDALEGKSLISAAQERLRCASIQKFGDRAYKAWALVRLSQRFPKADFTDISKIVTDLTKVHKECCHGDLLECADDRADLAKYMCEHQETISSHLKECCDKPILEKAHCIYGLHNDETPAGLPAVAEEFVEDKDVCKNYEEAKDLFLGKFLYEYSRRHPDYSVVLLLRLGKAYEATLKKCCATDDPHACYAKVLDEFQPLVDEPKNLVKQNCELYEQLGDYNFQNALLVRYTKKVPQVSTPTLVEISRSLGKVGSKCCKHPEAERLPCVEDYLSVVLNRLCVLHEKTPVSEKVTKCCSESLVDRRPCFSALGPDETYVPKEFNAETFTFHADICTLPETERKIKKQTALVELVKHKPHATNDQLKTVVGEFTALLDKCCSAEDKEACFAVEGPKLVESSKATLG
Description: The particular choice of agent/protein pair was based by the availability of the contrast agent and its well-documented relaxivity mechanisms, rather than any specific clinical or research interest in albumin.
An MRI phantom (see FIG. 5a) was constructed that held two columns of six rows of glass tubes; each tube 3 cm in length with a 0.4 mL capacity. The sample tubes in the left column were filled with 0.01 M phosphate buffered saline (PBS) (NaCl 0.138M, KCl 0.0027M, pH 7.4 at 25° C.). The right column of sample tubes held a solute of rabbit serum albumin (Sigma-Aldrich, batch 104K7560, agarose gel electrophoresis) in PBS. The albumin, purchased as a lyophilized powder, was dissolved in PBS, at a 4.5% weight to volume ratio resulting in ˜0.67 mM concentration. Vasovist (0.25 mmol/mL) was added in equal concentration to both columns to achieve sample concentrations of 0, 10, 20, 40, 80 and 160 μM as a function of descending rows.
Imaging was performed on a Sigma LX 1.5 T clinical MRI machine (General Electric Healthcare), equipped with an actively shielded electromagnetic ΔB insert (19). […]

myeloperoxidase = biological target: T2, myeloperoxidase (Homo sapiens, UniProt P05164); conditions: in the presence of active myeloperoxidase; cited from earlier work
T2 sequence (P05164 49-745): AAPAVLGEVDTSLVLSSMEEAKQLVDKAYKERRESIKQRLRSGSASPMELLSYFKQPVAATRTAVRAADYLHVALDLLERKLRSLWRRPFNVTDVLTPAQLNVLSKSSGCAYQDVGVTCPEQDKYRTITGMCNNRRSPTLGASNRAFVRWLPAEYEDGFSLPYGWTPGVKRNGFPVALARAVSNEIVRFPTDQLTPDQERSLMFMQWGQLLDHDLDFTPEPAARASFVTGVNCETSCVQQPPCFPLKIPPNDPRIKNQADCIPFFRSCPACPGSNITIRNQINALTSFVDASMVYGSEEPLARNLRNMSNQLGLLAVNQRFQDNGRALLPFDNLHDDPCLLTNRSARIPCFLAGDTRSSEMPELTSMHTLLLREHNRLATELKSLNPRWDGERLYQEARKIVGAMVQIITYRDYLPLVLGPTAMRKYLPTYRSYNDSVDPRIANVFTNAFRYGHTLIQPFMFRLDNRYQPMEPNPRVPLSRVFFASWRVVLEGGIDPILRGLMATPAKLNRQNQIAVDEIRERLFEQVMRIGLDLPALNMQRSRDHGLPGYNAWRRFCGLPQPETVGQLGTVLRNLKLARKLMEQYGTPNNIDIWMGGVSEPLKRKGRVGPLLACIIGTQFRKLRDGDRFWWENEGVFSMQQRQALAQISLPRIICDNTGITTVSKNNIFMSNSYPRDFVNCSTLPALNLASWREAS

Chain of human serum albumin (P02768 25-609): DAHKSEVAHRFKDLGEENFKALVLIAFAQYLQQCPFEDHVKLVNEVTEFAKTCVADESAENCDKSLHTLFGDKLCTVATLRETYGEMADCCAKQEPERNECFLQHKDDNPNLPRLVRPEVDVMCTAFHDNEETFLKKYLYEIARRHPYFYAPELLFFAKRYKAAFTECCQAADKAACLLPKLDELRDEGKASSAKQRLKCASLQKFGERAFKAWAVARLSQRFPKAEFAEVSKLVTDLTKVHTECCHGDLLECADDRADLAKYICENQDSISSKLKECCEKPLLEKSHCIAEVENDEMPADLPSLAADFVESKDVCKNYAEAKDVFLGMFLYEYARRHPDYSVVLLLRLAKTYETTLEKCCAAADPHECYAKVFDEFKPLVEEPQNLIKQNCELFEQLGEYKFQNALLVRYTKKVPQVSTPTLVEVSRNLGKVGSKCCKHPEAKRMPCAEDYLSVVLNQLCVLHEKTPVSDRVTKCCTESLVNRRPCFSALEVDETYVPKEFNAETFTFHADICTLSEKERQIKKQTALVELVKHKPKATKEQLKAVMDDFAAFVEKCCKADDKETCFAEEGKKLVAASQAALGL

Row | increase of relaxivity slope enhancement ratio over absolute relaxivity enhancement ratio (albumin [2]; 1.5 T) [fold] | relaxivity enhancement ratio (activated relaxivity to inactivated relaxivity) (albumin [2]; 1.5 T) | relaxivity slope enhancement ratio (activated r1′ to inactivated r1′) (albumin [2]; 1.5 T) | magnetic field strength at which the relaxivity enhancement ratio peaks (albumin [2]; from FIG. 3) [T] | Compound | relaxivity (albumin [1]; absence of albumin) [s⁻¹ mM⁻¹] | relaxivity (albumin [1]; presence of albumin) [s⁻¹ mM⁻¹] | binding to human serum albumin (human serum albumin) | increase of relaxivity of the bound form (human serum albumin; 30 Mhz) | increase of relaxivity of the bound form (human serum albumin; 60 MHz) | DREMR image intensity, albumin samples (rabbit serum albumin; 4.5% rabbit serum albumin in PBS, ±70 mT ΔB) | standard T1 weighted spin-echo image intensity (rabbit serum albumin; albumin solution and PBS samples, 0-160 μM) | relaxivity change on conversion to oligomeric form (myeloperoxidase)
1 | 25 | 3.7 | 90 | ~0.5 | O=C([O-])CN(CCN(CC(=O)[O-])CC(COP(=O)([O-])OC1CCC(c2ccccc2)(c2ccccc2)CC1)N(CC(=O)[O-])CC(=O)[O-])CC(=O)[O-].[Gd+3].[Na+].[Na+].[Na+] (stereo not drawn) [Vasovist, Gadofosveset trisodium] | 5.2 | 19 | strong non-covalent binding | approximately an order of magnitude | approximately four-fold | continued to demonstrate dependence on Vasovist concentration | demonstrated significant dependence on Vasovist concentration | –
2 | – | – | – | – | O=C([O-])CN(CCN(CC(=O)[O-])CC(=O)NCCc1c[nH]c2ccc(O)cc12)CCN(CC(=O)[O-])CC(=O)NCCc1c[nH]c2ccc(O)cc12.[Gd+3] [bis-5-HT-DTPA(Gd)] | – | – | – | – | – | – | – | enhanced relaxivity
